Laboratory results published in patent US20240208992A1, “MACROCYCLES AS CFTR MODULATORS” (Idorsia Pharmaceuticals Ltd, priority 2021, published 2024).

Molecular target: human F508del-CFTR (Homo sapiens, UniProt P13569, DEL508-508)
Assay: F508del-CFTR cell surface expression (corrector activity), DiscoveRx ß-galactosidase complementation chemiluminescence assay in recombinant U2OS cell line;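 also: U2OS cells co-expressing ProLink-tagged F508del-CFTR and a membrane-anchored enzyme acceptor, where more surface CFTR restores β-galactosidase activity measured by chemiluminescence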
Conditions: for EC50: EC50, F508del-CFTR cell surface expression; for Emax: U2OS
[1] = U2OS cells, 16h compound incubation, geomean values
[2] = in relation to Emax of corrector lumacaftor (=100%), arithmetic mean values
[3] = U2OS cell line, 16h compound incubation, geomean values
[4] = in relation to the Emax of the corrector lumacaftor (=100%), U2OS cell line, 16h compound incubation, arithmetic mean values

Sequence of human F508del-CFTR (P13569 with tags, fused parts or gaps DEL508-508): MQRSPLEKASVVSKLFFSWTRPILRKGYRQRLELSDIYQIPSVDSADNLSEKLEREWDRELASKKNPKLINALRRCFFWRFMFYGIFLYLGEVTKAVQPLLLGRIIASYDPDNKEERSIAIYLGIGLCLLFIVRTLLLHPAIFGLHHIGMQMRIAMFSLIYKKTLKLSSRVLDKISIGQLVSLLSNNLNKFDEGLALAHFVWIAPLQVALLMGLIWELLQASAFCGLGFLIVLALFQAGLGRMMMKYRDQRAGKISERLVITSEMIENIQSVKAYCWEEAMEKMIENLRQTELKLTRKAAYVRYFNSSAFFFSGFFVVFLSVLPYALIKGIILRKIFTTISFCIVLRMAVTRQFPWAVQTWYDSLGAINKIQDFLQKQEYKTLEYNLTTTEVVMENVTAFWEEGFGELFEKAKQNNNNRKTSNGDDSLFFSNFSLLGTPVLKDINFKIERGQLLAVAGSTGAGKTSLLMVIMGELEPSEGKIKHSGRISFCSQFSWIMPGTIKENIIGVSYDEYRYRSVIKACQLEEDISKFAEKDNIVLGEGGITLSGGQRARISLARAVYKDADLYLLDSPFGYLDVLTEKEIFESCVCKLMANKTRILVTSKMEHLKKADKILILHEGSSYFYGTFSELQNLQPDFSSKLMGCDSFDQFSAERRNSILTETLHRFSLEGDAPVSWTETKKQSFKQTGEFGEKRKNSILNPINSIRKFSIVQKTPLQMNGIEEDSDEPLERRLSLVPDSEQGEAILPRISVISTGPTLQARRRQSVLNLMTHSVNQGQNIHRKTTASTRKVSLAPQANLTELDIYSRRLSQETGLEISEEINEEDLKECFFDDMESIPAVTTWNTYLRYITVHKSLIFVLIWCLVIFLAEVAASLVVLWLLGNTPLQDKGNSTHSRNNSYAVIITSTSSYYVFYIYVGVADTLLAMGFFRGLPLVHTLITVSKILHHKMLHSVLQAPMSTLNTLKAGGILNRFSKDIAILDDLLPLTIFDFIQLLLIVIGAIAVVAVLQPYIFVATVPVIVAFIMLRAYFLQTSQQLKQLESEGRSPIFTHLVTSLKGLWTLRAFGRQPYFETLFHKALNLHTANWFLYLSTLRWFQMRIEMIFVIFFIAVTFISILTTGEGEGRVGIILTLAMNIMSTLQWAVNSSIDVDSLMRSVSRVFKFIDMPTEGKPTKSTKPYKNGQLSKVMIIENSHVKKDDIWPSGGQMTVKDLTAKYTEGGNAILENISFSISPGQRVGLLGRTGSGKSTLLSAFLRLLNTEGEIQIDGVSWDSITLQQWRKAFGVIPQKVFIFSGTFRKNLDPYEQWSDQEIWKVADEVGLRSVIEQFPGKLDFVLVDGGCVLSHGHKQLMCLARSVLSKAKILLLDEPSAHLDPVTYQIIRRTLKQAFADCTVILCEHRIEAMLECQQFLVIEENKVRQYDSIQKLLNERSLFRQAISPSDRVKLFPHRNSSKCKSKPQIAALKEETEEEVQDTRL

| SMILES | EC50 [3] [nM] | Emax [4] [%] | further results |
| --- | --- | --- | --- |
| COc1nccc2c1C(=O)N[C@H](C(=O)NCCc1cc(C3CC3)no1)CC(=O)N(C)[C@@H](CC(C)C)C(=O)N1CCCC[C@@H]1C(=O)N[C@H](Cc1ccccc1)CO2 [Example 523, (7S,11S,17aR,20R)-20-benzyl-N-(2-(3-cyclopropylisoxazol-5-yl)ethyl)-11-isobutyl-4-methoxy-10-methyl-5,9,12,18-tetraoxo-5,6,7,8,9,10,11,12,15,16,17,17a,18,19,20,21-hexadecahydro-14H-dipyrido[2,1-f:3′,4′-p][1]oxa[4,7,10,14]tetraazacycloheptadecine-7-carboxamide] | – | – | EC50 [1]: 483 nM; Emax [2]: 352% |
| COc1cccc2c1C(=O)N[C@H](C(=O)NCCc1ccc3c(c1)OCO3)CC(=O)N(C)[C@@H](C)C(=O)N(CCC1CCCCC1)CC(=O)N[C@H](Cc1ccccc1)CO2 [Example 263, (3R,9S,13S)-N-(2-(benzo[d][1,3]dioxol-5-yl)ethyl)-3-benzyl-7-(2-cyclohexylethyl)-16-methoxy-9,10-dimethyl-5,8,11,15-tetraoxo-2,3,4,5,6,7,8,9,10,11,12,13,14,15-tetradecahydrobenzo[p][1]oxa[4,7,10,14]tetraazacycloheptadecine-13-carboxamide] | 448 | 140 | – |
| CC(C)C[C@H]1C(=O)N2CCCC[C@@H]2C(=O)N[C@H](Cc2ccccc2)COc2cnc3ccccc3c2C(=O)N[C@H](C(=O)NCCc2cnn(C)c2)CC(=O)N1C [Example 83, (9S,13S,19aR,22R)-22-benzyl-13-isobutyl-12-methyl-N-(2-(1-methyl-1H-pyrazol-4-yl)ethyl)-7,11,14,20-tetraoxo-7,8,9,10,11,12,13,14,17,18,19,19a,20,21,22,23-hexadecahydro-16H-pyrido[2′,11:6,7][1]oxa[4,7,10,14]tetraazacycloheptadecino[17,16-c]quinoline-9-carboxamide] | 731 | 309 | – |
| COc1cc2c(cc1OC)C(=O)N[C@H](C(=O)NCCc1ccc3c(c1)OCCCC3)CC(=O)N(C)[C@@H](CC(C)C)C(=O)N(C)CC(=O)N[C@H](Cc1ccccc1)CO2 [Example 161, (3R,9S,13S)-3-benzyl-9-isobutyl-17,18-dimethoxy-7,10-dimethyl-5,8,11,15-tetraoxo-N-(2-(2,3,4,5-tetrahydrobenzo[b]oxepin-8-yl)ethyl)-2,3,4,5,6,7,8,9,10,11,12,13,14,15-tetradecahydrobenzo[p][1]oxa[4,7,10,14]tetraazacycloheptadecine-13-carboxamide] | 250 | 137 | – |
| CC(C)C[C@H]1C(=O)N2CCOC[C@@H]2C(=O)N[C@H](Cc2ccccc2)COc2cnc3ccccc3c2C(=O)N[C@H](C(=O)NCCc2cccc(F)c2)CC(=O)N1C [Example 66, (9S,13S,19aR,22R)-22-benzyl-N-(3-fluorophenethyl)-13-isobutyl-12-methyl-7,11,14,20-tetraoxo-7,8,9,10,11,12,13,14,16,17,19,19a,20,21,22,23-hexadecahydro-[1,4]oxazino[3′,4′:6,7][1]oxa[4,7,10,14]tetraazacycloheptadecino[17,16-c]quinoline-9-carboxamide] | 587 | 169 | – |
| Cc1cc(CCNC(=O)[C@@H]2CC(=O)N(C)[C@@H](CC(C)C)C(=O)N3CCCC[C@@H]3C(=O)N[C@H](Cc3ccccc3)COc3cnc4ccccc4c3C(=O)N2)ccc1-n1nccn1 [Example 125, (9S,13S,19aR,22R)-22-benzyl-13-isobutyl-12-methyl-N-(3-methyl-4-(2H-1,2,3-triazol-2-yl)phenethyl)-7,11,14,20-tetraoxo-7,8,9,10,11,12,13,14,17,18,19,19a,20,21,22,23-hexadecahydro-16H-pyrido[2′,1′:6,7][1]oxa[4,7,10,14]tetraazacycloheptadecino[17,16-c]quinoline-9-carboxamide] | 271 | 229 | – |
| CC(C)C[C@H]1C(=O)N(CCC2CCCCC2)CC(=O)N[C@H](Cc2ccccc2)COc2ccc3c(c2C(=O)N[C@H](C(=O)NCCc2ccc4c(c2)OCO4)CC(=O)N1C)OCO3 [Example 345, (8R,14S,18S)-N-(2-(benzo[d][1,3]dioxol-5-yl)ethyl)-8-benzyl-12-(2-cyclohexylethyl)-14-isobutyl-15-methyl-10,13,16,20-tetraoxo-7,8,9,10,11,12,13,14,15,16,17,18,19,20-tetradecahydro-[1,3]dioxolo[4′,5′:5,6]benzo[1,2-p][1]oxa[4,7,10,14]tetraazacycloheptadecine-18-carboxamide] | 95 | 268 | – |
| COc1cccc(CCNC(=O)[C@@H]2CC(=O)N(C)[C@@H](CC(C)C)C(=O)N3CCN(S(=O)(=O)CCN4CCOCC4)C[C@@H]3C(=O)N[C@H](Cc3ccccc3)COc3ccc4ccccc4c3C(=O)N2)c1 [Example 745, (4aR,7R,18S,22S)-7-benzyl-22-isobutyl-N-(3-methoxyphenethyl)-21-methyl-3-((2-morpholinoethyl)sulfonyl)-5,16,20,23-tetraoxo-2,3,4,4a,5,6,7,8,16,17,18,19,20,21,22,23-hexadecahydro-1H-naphtho[1,2-p]pyrazino[2,1-f][1]oxa[4,7,10,14]tetraazacycloheptadecine-18-carboxamide] | – | – | EC50 [1]: 693 nM; Emax [2]: 206% |
| Cc1cc(CCNC(=O)[C@@H]2CC(=O)N(C)[C@@H](CC(C)C)C(=O)N3CCCC[C@H]3C(=O)N[C@H](Cc3ccccc3)COc3ccc4ccccc4c3C(=O)N2)on1 [Example 606, (4aS,7R,18S,22S)-7-benzyl-22-isobutyl-21-methyl-N-(2-(3-methylisoxazol-5-yl)ethyl)-5,16,20,23-tetraoxo-2,3,4,4a,5,6,7,8,16,17,18,19,20,21,22,23-hexadecahydro-1H-naphtho[1,2-p]pyrido[2,1-f][1]oxa[4,7,10,14]tetraazacycloheptadecine-18-carboxamide] | – | – | EC50 [1]: 521 nM; Emax [2]: 150% |
| COc1cccc(CCNC(=O)[C@@H]2CC(=O)N(C)[C@@H](CC3CCCC3)C(=O)N(C[C@@H]3CCCCO3)CC(=O)N[C@H](Cc3ccccc3)COc3ccc4ccccc4c3C(=O)N2)c1 (mixture of isomers) [Example 295, (3RS,7S,13R)-13-benzyl-7-(cyclopentylmethyl)-N-(3-methoxyphenethyl)-6-methyl-1,5,8,11-tetraoxo-9-(((R)-tetrahydro-2H-pyran-2-yl)methyl)-1,2,3,4,5,6,7,8,9,10,11,12,13,14-tetradecahydronaphtho[1,2-p][1]oxa[4,7,10,14]tetraazacycloheptadecine-3-carboxamide] | 202 | – | – |
| CC(C)C[C@H]1C(=O)N(C)[C@H](Cc2nc(-c3ccc(F)cn3)no2)C(=O)N[C@H](Cc2ccccc2)COc2cnc3ccc(F)cc3c2C(=O)N[C@H](C(=O)NCCc2noc(C3CC3)n2)CC(=O)N1C [Example 813, (3S,7S,10R,13R)-13-benzyl-N-(2-(5-cyclopropyl-1,2,4-oxadiazol-3-yl)ethyl)-20-fluoro-10-((3-(5-fluoropyridin-2-yl)-1,2,4-oxadiazol-5-yl)methyl)-7-isobutyl-6,9-dimethyl-1,5,8,11-tetraoxo-1,2,3,4,5,6,7,8,9,10,11,12,13,14-tetradecahydro-[1]oxa[4,7,10,14]tetraazacycloheptadecino[17,16-c]quinoline-3-carboxamide] | – | – | EC50 (U2OS cells, 16h compound incubation, geomean of several measurements): 110 nM; Emax (in relation to the Emax of the corrector lumacaftor (=100%), U2OS cells, 16h compound incubation, arithmetic mean): 346% |
